“Also recorded” adds a separate entry of the source. Like-named read-outs stand apart in the source and are kept apart here.

In one experiment the target is mushroom tyrosinase (Agaricus bisporus, UniProt C7FF04). Put plainly: Monophenolase activity assay of mushroom tyrosinase (L-Tyrosine substrate). Format: biochemical. As to conditions: for mechanism of inhibition of monophenolase activity: L-B and Dixon plots, nonlinear curve fitting; for Ki: read-out: apparent Ki, monophenolase (L-TYR). On the procedure: The direct effects of the compounds on the monophenolase activity of tyrosinase were tested using mushroom tyrosinase enzyme with a fixed concentration of L-Tyrosine (L-Tyr) as the substrate. Briefly, 80 µL of compounds prepared at different concentrations in 50 mM sodium phosphate (pH 6.8) buffer were added to wells of a 96-well microplate followed by 100 µL of 2 mM L-Tyr solution. The reaction was initiated by adding 20 µL of mushroom tyrosinase (final concentration of enzyme in wells was 12.5 µg/mL) and was monitored by measuring absorbance at 475 nm every 30 s over a 30 min period, using a microplate reader (Versamax®) in the kinetic mode. The slopes of the plots of absorbance vs. time were calculated for comparison of enzyme activity in the presence of each of the inhibitors to that of an inhibitor-free control and reported as percentage of control activity (%).
In order to study the mechanism of inhibition of tyrosinase activity by the compounds as a function of substrate concentration, we conducted a kinetic study of monophenolase and diphenolase activities at multiple concentrations of substrates. For the monophenolase activity assay, the final concentration of enzyme was 12.5 µg/mL and the final substrate concentrations were 0.125, 0.25, 0.5 and 1 mM, while for diphenolase activity assay, the final concentration of enzyme was 3.5 µg/mL and the final substrate concentrations ranged from 0.1–3 mM. The slopes from the linear range of the progress curves of absorbance at 475 nm vs. time were recorded as apparent velocities and the reciprocal values, 1/v, were plotted as functions of the reciprocal values of the substrate concentrations at different fixed inhibitor concentrations according to the method of Lineweaver and Burk (L-B). Dixon plots of the reciprocal velocity values, (1/v), as functions of the inhibitor concentrations at different fixed substrate concentrations were also constructed to investigate further the apparent mode of inhibition by the compounds.
We have also analyzed the inhibition data using nonlinear curve fitting algorithms which are more robust than the linearized L-B and Dixon plotting methods that can weigh the data from evenly spaced concentrations disproportionately. The inhibition constants were calculated by non-linear least squares curve fitting using a modified Levenberg-Marquardt algorithm and data was fitted to models of pure competitive, noncompetitive, and uncompetitive inhibition using Enzfitter software (version 2.0, Biosoft, Cambridge, UK). This analysis was undertaken to assess the apparent potency of compounds, PC, CMC2.24, and CMC2.23 for each putative mode of inhibition.

Experiment [1] can be described thus: Copper chelating assay (pyrocatechol violet). On the procedure: Copper chelation can be detected by a PV colorimetric assay as reported in other studies and similar to the method reported in our previous study. Briefly, 100 µL aliquots of different concentrations of compounds prepared in 50 mM sodium acetate buffer (pH 6.0) were added to a 96-well plate. The control group consisted of buffer only, while KA at 500 µM served as a positive control. Copper sulfate (2 mM; 10 µL) was added to each of the samples and incubated for 10 min. Next, 10 µL of 2 mM PV was added and the plate was further incubated for 20 min. The absorbance was read at 632 nm using a microplate reader; a lower absorbance compared to that of the buffer control was indicative of copper chelation.

In experiment [2] the test system is B16F10 mouse melanoma cells. Put plainly: Melanin levels in B16F10 cells. As to conditions: for suppression of melanin levels: 48 h. Format: cell-based. On the procedure: B16F10 cells (1 × 10^5 cells/well) were seeded in 12-well plates and cultured for 24 h. The medium was then replaced with compounds at nontoxic concentrations that were selected on the basis of the MTS assay and incubated for another 48 h. After the treatments, the cells were detached using TrypLE (1×), and cell pellets were washed in PBS. Cell pellets were visually observed for lightening of the pigment. After aspiration, 250 μL of 1N NaOH was added and heated to 70 °C to solubilize melanin. The aliquots were then transferred to a 96-well plate and absorbance was read at 475 nm using a microplate reader. The absorbance was normalized to total protein content and was expressed as % of control.

Experiment [3] relates to tyrosinase activity in B16F10 cells. Put plainly: Recovery study of intracellular tyrosinase activity. The experiment is classed as cell-based, mouse. As for the experimental part: In order to establish reversibility of tyrosinase inhibition by the CMCs, we conducted a recovery study for 48 h using the highest concentrations of the compounds that produced maximum inhibition of tyrosinase activity. B16F10 cells were plated in six-well plates at 3.5 × 10^4 cells/well and then compounds were added the next day. Tyrosinase activity was estimated after 48 h exposure in cellular lysates and another set of cultures were continued with fresh medium without the compounds to study the recovery of tyrosinase activity for 48 h. Results are expressed as % tyrosinase activity for both 48 h exposure and 48 h recovery.

The test system of experiment [4] is α-glucosidase activity in B16F10 cells. Put plainly: Intracellular α-glucosidase assay. Format: cell-based, mouse. To be noted: 48 h; for inhibition at 10 µM / inhibition at 5 µM / inhibition at 20 µM / inhibition at 25 µM: Mus musculus, B16-F10, read-out: inhibition of cellular α-glucosidase activity. On the procedure:
B16F10 cells (2.2 × 10^5) were grown in 6-well plates and compounds were added next day for 48 h. Cells were harvested, lysed and 50 µL of lysates were aliquoted in a 96-well plate with 100 µL of 2 mM pNG substrate; rate of the formation of the yellow-colored reaction product, p-nitrophenol, was monitored at 405 nm for 30 min at 37 °C in a microplate reader (kinetic mode) and values were normalized to total protein contents. The cellular α-glucosidase activity was calculated as (rate of sample reaction/rate of control reaction) × 100 and was expressed as percentage of control.

For experiment [5], the target named is T1, α-glucosidase enzyme from Baker’s yeast (Saccharomyces cerevisiae, UniProt P53341).
T1 construct: purchased Sigma-Aldrich (St. Louis, MO, USA)
Put plainly: Cell-free α-glucosidase assay. The experiment is classed as biochemical. On the procedure:
The effects of compounds on α-glucosidase were assayed based on the method decribed previously with some modifications. 80 µL of samples (prepared in 0.05 M phosphate buffer, pH 6.8) were aliquoted in a 96-well microplate followed by the addition of 100 µL of 2.4 mM pNG substrate solution. A volume of 20 µL of 0.45 units of α-glucosidase enzyme from Baker’s yeast prepared in 0.05 M buffer was added to start the reaction; the rate of the formation of p-nitrophenol was monitored at 405 nm for 15 min at 37 °C in a microplate reader in kinetic mode. The enzyme activity (%) was calculated as: (rate of sample reaction/rate of control reaction) × 100%.

Experiment [6] relates to cAMP levels in B16F10 cells. Put plainly: cAMP levels by competitive ELISA in B16F10 lysates. The experiment is classed as cell-based, mouse. To be noted: for effect on cAMP levels: all concentrations tested. From the text:
For assaying the levels of cAMP in B16F10 cellular lysates, a competitive ELISA (Enzo Life Sciences, Farmingdale, NY, USA) was used in non-acetylated format based on manufacturer instructions.
On the technique in general: Changes in cAMP serve as a functional read-out for many G protein-coupled receptors.

Setting [7] is: Mus musculus, B16-F10, 48 h, read-out: loss of tyrosinase activity after 48 h exposure (recovery study).

Sequence of mushroom tyrosinase (C7FF04 1-392): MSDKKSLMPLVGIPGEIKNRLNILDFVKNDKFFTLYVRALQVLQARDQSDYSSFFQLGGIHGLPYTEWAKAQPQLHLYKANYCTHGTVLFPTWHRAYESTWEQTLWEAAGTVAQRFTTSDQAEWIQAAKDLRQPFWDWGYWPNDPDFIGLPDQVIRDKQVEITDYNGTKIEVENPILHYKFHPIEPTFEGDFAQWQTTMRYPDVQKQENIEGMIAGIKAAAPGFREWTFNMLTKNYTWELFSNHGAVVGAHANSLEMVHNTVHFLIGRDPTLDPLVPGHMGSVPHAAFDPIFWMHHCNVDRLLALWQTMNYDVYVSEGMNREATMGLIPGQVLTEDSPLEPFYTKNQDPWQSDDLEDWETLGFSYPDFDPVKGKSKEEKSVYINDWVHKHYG
T1 sequence (P53341 whole entry): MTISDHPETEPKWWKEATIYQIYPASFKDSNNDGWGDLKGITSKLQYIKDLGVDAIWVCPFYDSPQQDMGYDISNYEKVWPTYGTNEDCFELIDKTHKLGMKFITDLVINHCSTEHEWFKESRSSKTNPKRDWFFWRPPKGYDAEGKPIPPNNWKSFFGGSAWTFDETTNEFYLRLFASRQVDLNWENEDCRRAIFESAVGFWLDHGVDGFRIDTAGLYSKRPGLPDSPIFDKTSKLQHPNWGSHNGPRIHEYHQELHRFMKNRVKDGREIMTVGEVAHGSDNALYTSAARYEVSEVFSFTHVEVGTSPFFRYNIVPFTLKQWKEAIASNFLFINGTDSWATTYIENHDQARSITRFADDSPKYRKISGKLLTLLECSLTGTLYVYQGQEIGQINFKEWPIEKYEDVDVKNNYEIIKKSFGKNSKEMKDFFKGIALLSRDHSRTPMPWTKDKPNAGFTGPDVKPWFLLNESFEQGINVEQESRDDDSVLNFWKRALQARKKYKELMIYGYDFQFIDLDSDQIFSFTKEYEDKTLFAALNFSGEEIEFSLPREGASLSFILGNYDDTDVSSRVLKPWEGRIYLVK

The term IC50 denotes the concentration needed to halve the response being measured. Regarding “1,7-bis(4-hydroxy-3-methoxyphenyl)-1,6-heptadien-3,5-dione [PC, reference compound]”, the “inhibition of monophenolase activity” value turned out to be 14.41% on mushroom tyrosinase (10 μM compound), 21.31% at mushroom tyrosinase (20 μM compound) and 22.10% at mushroom tyrosinase (25 μM compound). The “mechanism of inhibition of monophenolase activity” value on mushroom tyrosinase is on record as “not a pure competitive inhibitor; also recorded: mixed inhibitor”. The results for the Ki at mushroom tyrosinase (fit to pure competitive inhibition), at mushroom tyrosinase (fit to pure noncompetitive inhibition) and on mushroom tyrosinase (fit to pure uncompetitive inhibition) were 7.74 µM, 50.8 µM and 40.2 µM, respectively. Further, the IC50 on mushroom tyrosinase (fixed substrate concentration (L-Tyr), read-out: IC50 for Monophenolase Inhibition) was 67 ± 2.4 µM. The “effect on copper chelation” value in experiment [1] is on record as “did not show any effect on copper chelation”. Further, in experiment [2] (10 µM), the “suppression of melanin levels” value came out at 20.92%. Also, in experiment [3] (10 µM, read-out: loss of tyrosinase activity after 48 h exposure (recovery study)), the inhibition is 89.5%. Besides, in experiment [3] (after exposure to 10 µM), the “tyrosinase activity after 48 h recovery in compound-free medium” value was “did not differ from that of the control group”. The “inhibition of cellular α-glucosidase activity” value in experiment [4] (5 µM) is 13.71%; in experiment [4] (10 µM), 10.47%. Further, the “inhibition of cell-free α-glucosidase activity” value stood at 20.13% in experiment [5] (5 µM) and 22.13% in experiment [5] (10 µM). Moreover, the “effect on cAMP levels” value in experiment [6] (48 h) was “trend for attenuation of cAMP levels, but the levels were not significant”.

For `COC(=O)/C(C(=O)/C=C/c1ccc(O)cc1)=C(O)\C=C\c1ccc(O)cc1` [CMC2.14], the “suppression of melanin levels” value in experiment [2] (10 µM) amounted to 28.42%. The inhibition at 10 µM in experiment [3] (Mus musculus, B16-F10, 48 h, 10 µM, read-out: loss of tyrosinase activity after 48 h exposure (recovery study)) came out at 74.8%; in experiment [4] (10 µM), 16.5%; in experiment [5] (10 µM), 14.3%. In addition, the “tyrosinase activity after 48 h recovery in compound-free medium” value in experiment [3] (after exposure to 10 µM) worked out at 100%. In addition, the “effect on cAMP levels” value in experiment [6] (48 h) is recorded as “did not affect cAMP levels at any concentration”.

For `O=C(/C=C/c1ccc(O)cc1)/C(C(=O)Nc1ccccc1)=C(O)/C=C/c1ccc(O)cc1` [CMC2.24], the inhibition at 5 µM is 32.1% at mushroom tyrosinase (5 μM compound, 1 mM L-Tyr final); 10.2% in experiment [4] (5 µM); 27.1% in experiment [5] (5 µM). For the same molecule, the inhibition at 10 µM on mushroom tyrosinase (10 μM compound) was 34.7%; in experiment [4] (10 µM), 12.6%; in experiment [5] (10 µM) it was 25.6%. Further, the inhibition at 20 µM at mushroom tyrosinase (20 μM compound) was 34.8%; in experiment [3] (setting [7]), 73.3%; in experiment [4] it was 20.3%; in experiment [5], 35.3%. Besides, the inhibition at 25 µM at mushroom tyrosinase (25 μM compound) turned out to be 37%; in experiment [4] (25 µM), 16.4%; in experiment [5], 41.3%. The “mechanism of inhibition of monophenolase activity” value at mushroom tyrosinase is recorded as “mixed mode of inhibition with a predominantly competitive mechanism”. In experiment [1] (20 µM, compared to the control), this molecule had a copper chelating activity of 11.86%. Besides, the “suppression of melanin levels” value in experiment [2] (10 µM) turned out to be 32.54%; in experiment [2] (20 µM), 43.53%; in experiment [2] (25 µM), 41.07%. Also, the “fold higher level of melanin inhibition vs PC” value in experiment [2] (20 µM) was determined as 1.5 fold; in experiment [2] (25 µM), 2 fold. In addition, the “attenuation of cAMP levels” value is 18.13% in experiment [6] (10 µM, 48 h (not significant)); 38.18% in experiment [6] (20 µM, 48 h); 49.42% in experiment [6] (25 µM, 48 h).

Regarding `COC(=O)/C(C(=O)/C=C/c1ccc(O)c(OC)c1)=C(O)\C=C\c1ccc(O)c(OC)c1` [CMC2.5, 4-methoxycarbonyl curcumin], the results for the “suppression of melanin levels” value in experiment [2] (20 µM) and in experiment [2] (25 µM) were 34.84% and 31.40%, respectively. The figures for the inhibition at 20 µM in experiment [3] (setting [7]), in experiment [4] and in experiment [5] were 42.5%, 25.6% and 14%, respectively. For the same molecule, the “tyrosinase activity after 48 h recovery in compound-free medium” value in experiment [3] (after exposure to 20 µM) was determined as 100%. In addition, the inhibition at 10 µM in experiment [4] (10 µM) amounted to 12.4%. In addition, the inhibition at 25 µM in experiment [4] (25 µM) was 27.4%. For the same molecule, the “cell-free α-glucosidase activity” value in experiment [5] (concentrations other than 20 µM) is “no change was observed at any other concentration”. Besides, in experiment [6] (48 h), the “effect on cAMP levels” value is listed as “did not affect cAMP levels at any concentration”.

`COc1cc(/C=C/C(=O)/C(C(=O)Nc2ccccc2)=C(O)/C=C/c2ccc(O)c(OC)c2)ccc1O` [CMC2.23]: on mushroom tyrosinase, the “mechanism of inhibition of monophenolase activity” value was “mixed, but predominantly competitive, mode of inhibition”. In addition, the figures for the “suppression of melanin levels” value in experiment [2] (10 µM), in experiment [2] (20 µM) and in experiment [2] (25 µM) were 28.63%, 33.68% and 37.87%, respectively. Besides, the inhibition at 20 µM was 52.7% in experiment [3] (setting [7]), 11.8% in experiment [4] and 19.8% in experiment [5]. Also, the “inhibition of cellular α-glucosidase activity” value in experiment [4] (25 µM) is “no change”. Besides, the inhibition at 5 µM in experiment [4] (5 µM) is 12.4%; in experiment [5] (5 µM), 15.5%. The results for the inhibition at 10 µM in experiment [4] (10 µM) and in experiment [5] (10 µM) were 14.9% and 16.5%, respectively. In addition, the inhibition at 25 µM in experiment [5] was found to be 17.2%. Also, the “effect on cAMP levels” value in experiment [6] (48 h) is “did not affect cAMP levels at any concentration”.

The record behind these values is paper PMC8145596, “Novel Chemically Modified Curcumin (CMC) Derivatives Inhibit Tyrosinase Activity and Melanin Synthesis in B16F10 Mouse Melanoma Cells” (Biomolecules, 2021).
